Data as given in patent US20240100062A1, “Methods of Treatment With an Iboga Alkaloid” (priority 2022, published 2024).
“And” between values parts separate entries of the source, which are not always exact repeats. Equal entries are not always repeated.

Experiments:
[1] = tested on: special operations veterans; experiment: CAPS-5 clinician-administered PTSD scale, Example 1 study; type: in vivo, human; conditions: for CAPS-5 score, mean: p(FDR) <0.001
Description: With subjects in the fasting state, an intravenous infusion of 1 gram of magnesium sulfate was administered 1-2 hours prior to treatment. […] Medical staff (MD, RN, or EMT) were onsite at a ratio of at least 1 staff per 2 patients throughout treatment for monitoring and management, but no specific coaching or psychological support was provided during treatment.
Post treatment, each subject was assessed four days after treatment, one month after treatment, and, if willing, one year after treatment. The post-treatment assessments conducted at four days and at one month after treatment included neuropsychological testing, measures of PTSD, depression, anxiety, mystical experiences, functional imaging and EEG. Post-treatment assessments conducted at one year after treatment included PTSD, depression, and anxiety measures.
Clinician administered scales included CAPS-5 (Clinician-administered PTSD Scale for DSM-5), which is a gold standard assessment of PTSD symptom severity; MADRS (Montgomery-Asberg Depression Rating Scale), a measure for depressive symptom severity; and Hamilton-Anxiety Rating Scale (HAM-A) (Shear, M. K. et al., Depress. Anxiety 13, 166-178 (2001)) a measure for anxiety symptom severity; SCID-5 (Structured Clinical Interview for DSM-5) Overview for a historical and environmental context of symptom presentation; MINI DSM-5 (Mini International Neuropsychiatric Interview from DSM-5) for a structured psychodiagnostics assessment; BAT-L (Boston Assessment of TBI—Lifetime) for a lifetime history of TBI and blast exposure; and Ohio State University TBI Identification Method (Short Form) for a lifetime history of TBI. MADRS testing provides an indication of depressive symptoms, CAPS-5 provides an indication of PTSD and SIGH-A provides an indication of anxiety. Collectively these overlap to provide indication of mood, concentration, sleep and tension.
For the CAPS-5, the test version with a […] structured interview of PTSD symptoms over the past week was used, using a 0 (“Absent”) to 4 (“Extreme/Incapacitating”) scale, with possible total scores ranging from 0 to 80. The score range 23 to 34 is considered moderate PTSD while a higher score represents severe PTSD (Weathers, F. W. et al., Psychol. Assess. 30, 383-395 (2018)).

[2] = tested on: male veterans with a history of TBI; experiment: Pseudo-continuous arterial spin labeling MRI, cerebral blood flow (Example 3); type: in vivo, human; conditions: paired t-test across baseline, first post-treatment scan and 1 month post-treatment; p<0.001
Description: Arterial spin labeling (ASL) MR was used to measure cerebral blood flow in some of the subjects of the subjects enrolled in the study of Example 1. As described in Example 3, pseudo-continuous ASL (pcASL) was performed on the subject at baseline, about 1 week after treatment, and one-month after treatment. […] A first metric of interest was change in net quantity (mL/100 g tissue/min) of blood entering different regions of the brain. Images of the left posterior orbital gyrus, left anterior insula, left and right cerebral white matter at baseline and 1-week post treatment (images not shown) were analyzed and compared. […] A paired t-test across 3 time points—baseline (pre-treatment), 1 week post-treatment, and 1 month post-treatment—was employed.
A second metric of interest was regression between change in clinical scores versus change in relative cerebral blood perfusion from baseline to one-month post treatment. Multiple regression with clinical scores at baseline and one-month post treatment was used. […]
A first metric of interest was change in net quantity (mL/100 g tissue/min) of blood entering different regions of the brain. Images of the left posterior orbital gyrus, left anterior insula, left and right cerebral white matter at baseline and 1-2 days post treatment (images not shown) were analyzed and compared. […]

[3] = tested on: special operations veterans; experiment: Resting-state fMRI functional connectivity (Example 2); type: in vivo, human; conditions: within a few days after treatment; persisted to one-month post treatment; 5000 pairs tested
From the text: The human brain is a series of well-organized and optimized series of efficient networks. Disease states can be characterized as abnormalities or inefficiencies in the networks and/or the global organization. Resting-state functional connectivity is one method to characterize disease states and effects of interventions. The functional connectivity networks evaluated in a region of interest in the brain included those identified in Table 2-1 of Example 2.
The subjects were asked to clear their mind of any particular thoughts in order to capture the brain at rest or in its ‘default’ state. An a priori region of interest was determined for analysis and 5000 functional connectivity pairs were tested. The underlying alteration in brain patterns (connectivity) due to an intervention was evaluated.

[4] = tested on: special operations veterans; experiment: Delis-Kaplan Executive Function System (D-KEFS), Example 1 study; type: in vivo, human
[5] = tested on: special operations veterans; experiment: Wechsler Adult Intelligence Scale (WAIS-IV) PSI and WMI, Example 1 study; type: in vivo, human
[6] = tested on: special operations veterans; experiment: Neuropsychological battery overall, Example 1 study; type: in vivo, human; conditions: post treatment time points
From the text: A summary of the results is in Table 1 and Table 1-6 of Example 1. […] In Table 1, neuropsychological test scores are represented as a T score (mean of 50, SD of 10). Unless stated otherwise, a higher score represents better performance.
Neuropsychological testing of the enrolled subjects was designed to examine abilities over several domains of cognitive functioning, including estimated intelligence quotient (IQ), verbal fluency, working memory (visual and auditory), long term memory (visual and auditory), processing speed, sustained attention, problem solving, ability to perceive patterns, executive functioning, such as ability to hold and manipulate or update information in the head, inhibition, ability to organize, plan, and develop solutions to problems. In addition, assessments examining cognitive abilities over several domains of functioning were done to evaluate the safety of ibogaine use. […]

BDNF and GDNF = conditions: cited from earlier work
[7] = tested on: special operations veterans; design: species or system human; conditions: in vivo

Question: What does the source list for `CCC1CC2CC3c4[nH]c5ccc(OC)cc5c4CCN(C2)C13` (centres unmarked) [ibogaine, Ibogaine]?
Answer: CAPS-5 score, mean ([1]; 1-mo. post, SD 8.1, baseline 31.7 ± 13.0, N 28, only participants with mild TBI): 4.8; CAPS-5 score, mean ([1]; 1-mo. post, SD 8.7, baseline 35.7 ± 11.0, N 23, only participants meeting diagnostic criteria per MINI at baseline): 6.0; CAPS-5 % Reduction vs Baseline, mean ([1]; 1-mo. post, SD 17%, only participants with mild TBI): 88% ±; CAPS-5 % Reduction vs Baseline, mean ([1]; 1-mo. post, SD 19%, only participants meeting diagnostic criteria per MINI): 86% ±; CAPS-5 score, mean ([1]; 1-wk post, SD 5.2, baseline 35.7 ± 11.0, N 23, only participants meeting diagnostic criteria per MINI at baseline): 4.4; CAPS-5 score, mean ([1]; 1-wk. post, SD 4.5, baseline 31.7 ± 13.0, N 28, only participants with mild TBI): 3.6; CAPS-5 % Reduction vs Baseline, mean ([1]; 1-wk. post, SD 14%, only participants with mild TBI): 89% ±; CAPS-5 % Reduction vs Baseline, mean ([1]; 1-wk. post, SD 17%, only participants meeting diagnostic criteria per MINI): 87% ±; Change in absolute cerebral blood flow [2]: No significant changes; Reorganization of functional connection pairs in the brain networks, number of pairs [3]: 22; Phonemic Fluency (D-KEFS Verbal Fluency), mean ± SD ([4]; 1-mo. post, baseline 57.0 ± 11.7, p(FDR) <0.001): 64.0 ± 10.1 T score; Cognitive Flexibility Composite, D ([4]; baseline vs 1-month post): 0.74; Cognitive Inhibition (D-KEFS Color/Word Interference, Condition 3), D ([4]; baseline vs 1-month post): 0.62; Phonemic Fluency (D-KEFS Verbal Fluency), D ([4]; baseline vs 1-month post): 1.11; Problem Solving (D-KEFS TT, Total Achievement Score), D ([4]; baseline vs 1-month post): 0.44; Semantic Fluency (D-KEFS Verbal Fluency), D ([4]; baseline vs 1-month post): 0.24; Cognitive Flexibility Composite, D ([4]; baseline vs 1-wk post): 0.43; Phonemic Fluency (D-KEFS Verbal Fluency), D ([4]; baseline vs 1-wk post): 0.52; Problem Solving (D-KEFS TT, Total Achievement Score), D ([4]; baseline vs 1-wk post): 0.49; Semantic Fluency (D-KEFS Verbal Fluency), D ([4]; baseline vs 1-wk post): 0.02; Language (semantic fluency) performance change ([4]; post treatment time points): No significant performance changes; Working Memory (WMI, WAIS-IV), mean ± SD ([5]; 1-wk post, baseline 55.1 ± 8.3, p(FDR) 0.034): 57.0 ± 9.5 T score; Working Memory (WMI, WAIS-IV), D ([5]; baseline vs 1-month post): 0.31; Processing Speed (PSI, WAIS-IV), D ([5]; baseline vs 1-wk post): 0.97; Working Memory (WMI, WAIS-IV), D ([5]; baseline vs 1-wk post): 0.37; Declines across performance domains [6]: No declines were noted across any performance domain; Transcription of neurotrophic factors including BDNF and GDNF (BDNF and GDNF): increases the transcription of neurotrophic factors; Detection (CPT-3 Detection), D [7]: 0.86; Reaction Time (CPT-3 Reaction Time), D [7]: 0.52 and 0.29; Reaction Time (CPT-3 Reaction Time), mean ± SD [7]: 44.1 ± 6.8 T score and 46.4 ± 8.1 T score; Slowing of reaction time, D [7]: 0.29-0.52; Sustained Attention (CPT-3 Hit Reaction Time Block Change), mean ± SD [7]: 50.8 ± 7.9 T score and 51.2 ± 7.7 T score
